Source: ChEMBL document CHEMBL3301451, “MMV Malaria Box gametocyte functional viability assay screening”

Tests used:
Type in all cases: functional
Set-up in all cases: concentration or dose not given beside the values
Plasmodium falciparum [1] = test: (§1) MMV: P. falciparum NF54 functionally mature Stage V gametocytes were incubated for 24 hr in the presence of the test compounds. Gamete formation was then triggered by addition of 2uM xantheurenic acid and temperature decrease to ~20C. Male gamete exflagellation was recorded and analysed by automated microscopy after 20 min. All compounds were tested in 4 independent experiments and data presented here is the mean.
Plasmodium falciparum [2] = test: as §1, with “Female” for “Male”, “formation” for “exflagellation”, “24 hr later” for “and analysed”, “detection of surface labelling of female gametes with a Cy3-conjugated antibody reactive to Pfs25.” for “after 20 min.”; details: NF54, 24 h
Plasmodium berghei = test: MMV: P. berghei-infected blood was withdrawn from mice by cardiac pucture before being immediately added to ookinete culture medium containing test compounds. 26 hr later, GFP-positive ookinetes were identified and counted by automated microscopy. All compounds were tested in 4 independent experiments and data presented here is the mean.

SMILES	inhibition (Plasmodium falciparum [1]) [%]	inhibition (Plasmodium falciparum [2]) [%]	inhibition (Plasmodium berghei) [%]
O=C(Nc1ccc(-c2nc3cc(NC(=O)c4ccc(Cl)cc4)ccc3[nH]2)cc1)c1ccc(Cl)cc1	-17.6	-21.8	-7.523
COc1nc(Nc2ccc(C(C)C)cc2)nc(OC)n1	-0.697	-59.5	-7.623
Cc1ccccc1OCCSc1nc2ccc(NC(=O)c3cccs3)cc2s1	11.6	-2.71	-6.357
CCOc1cccc(C(=O)Nc2ccc(-c3nc4ccccc4[nH]3)cc2)c1	32.1	-29.6	-10.12
Cc1cc(N(C)C)nc(Nc2ccc(NC(=O)Nc3ccccc3)cc2)n1	33.6	-35.4	-9.07
O=C(CSc1ccc2nnc(-c3cccc(F)c3)n2n1)Nc1ccc2c(c1)OCO2	-1.24	-24.8	-8.438
c1ccc2c(NCCc3c[nH]c4ccccc34)c3ccccc3nc2c1	5.59	2.57	-6.399
CCCC(c1nnnn1C1CCCCC1)N1CCN(C(=O)c2ccco2)CC1.Cl (stereo unspecified)	23.7	-48.5	-10.21
Cc1cc(NC(=O)c2ccc(-c3ccccc3)cc2)no1	18.9	-45.6	-9.578
COc1ccc(-c2nonc2NC(=O)c2cccc(C)c2)cc1OC	31.3	3.1	-9.338
Cc1cc(C)c2nc(N3CCC(C(=O)NCCCN4CCC(N5CCCCC5)CC4)CC3)sc2c1	8.94	21.7	-9.223
O=C(Nc1ccsc1C(=O)NC1CCCCC1)c1ccc(F)cc1	0.722	-14.2	-7.294
CCOc1cccc2sc(N(Cc3cccnc3)C(=O)C3CCCCC3)nc12	-1.33	-5.49	-7.751
CC(C)(C)c1ccc(C(=O)Nc2c3c(nn2-c2cccc(Cl)c2)CSC3)cc1	25.7	-5.95	-7.14
CCOc1ccc(-c2nonc2NC(=O)c2cccc(C)c2)cc1OCC	52.4	-7.75	-6.946
CCN(CC)c1cc(C)c2cc(NC(=O)c3cccc(OC)c3)ccc2n1	-1.32	-22.1	-7.501

SMILES	inhibition (Plasmodium falciparum [1]) [%]	inhibition (Plasmodium falciparum [2]) [%]	inhibition (Plasmodium berghei) [%]
CC(C)(C)CC(C)(C)NCC(O)COc1ccc2c(c1)CCC2.Cl (stereo unspecified)	-54.4	-4.34	-7.207
CSc1ccccc1C(=O)Nc1nc(-c2ccccn2)cs1	20.5	-18.6	-9.487
CC(O)(c1ccc(Cl)cc1)C(CN1CCCCC1)c1ccccc1.Cl (stereo unspecified)	-5.37	-1.41	-9.711
CCOC(=O)C1(Cc2ccccc2)CCN(Cc2cccc(OC)c2O)CC1	-10.2	-9.84	-6.801
CCCCc1ccc(NS(=O)(=O)c2cc3c4c(c2)CCN4C(=O)CC3)cc1	15.5	-27.1	-6.551
O=C(Cc1ccccc1)NC(c1ccc(Cl)cc1)c1c(O)ccc2ccccc12 (stereo unspecified)	54.1	10.7	-6.482
COc1ccc(OC)c(C2C3=C(CC(C)(C)CC3=O)N(c3ccc(Cl)c(Cl)c3)C3=C2C(=O)CC(C)(C)C3)c1	-60	-10.6	-8.364
COc1ccc(C(=O)NC(c2ccccc2Cl)c2cc(Cl)c3cccnc3c2O)cc1 (stereo unspecified)	2.11	-6.93	-9.997
CC1=C(CC(=O)c2cccc([N+](=O)[O-])c2)C(=O)c2ccccc2C1=O	-2.58	-17.4	-6.724
CCCCCCOC(=O)C1=C(C)NC(=O)NC1c1ccccc1F (stereo unspecified)	11.4	-1.36	-7.086
Clc1ccc2c(N3CCCC3)ccnc2c1	33.7	5.78	-9.994
CCCCCCC(O)(c1ccc(F)cc1)C(CN1CCOCC1)c1ccccc1.Cl (stereo unspecified)	-64	17.7	-9.863
CCOc1c(Br)cc(C2C(C(=O)OC)=CN(C)C=C2C(=O)OC)cc1OC	8.8	4.74	-9.574
COc1ccc(C(=O)C2CC2c2ccc(Cl)cc2)cc1 (stereo unspecified)	19.4	-10.6	-7.167
CCOC(=O)c1cnc2ccc(OC)cc2c1NCc1ccccc1	-12.8	-40.9	-6.823
CCCCc1c(CCC)c(=N)c2ccccc2n1C.I	-57	-25.6	-7.021
